# Values quoted from earlier work in paper PMC7111419 (European Journal of Medicinal Chemistry, 2019).
# Experiments:
# [1] = tested on: βGLU in breast milk; settings: 10 μM; cited from earlier work
# [2] = tested on: βGLU; settings: value recurrent in literature; cited from earlier work
# [3] = tested on: female Wistar rats; settings: i.p. pre or cotreatment, 3 mg/ml, 10 mg/ml or 10 mg/0.5 ml, 6 days; cited from earlier work
# [4] = tested on: SENCAR mice; settings: cited from earlier work
# [5] = tested on: human liver-derived βGLU; settings: 1 mM; cited from earlier work
# [6] = tested on: male albino Wistar rats; settings: 7.5 mg/kg body weight/day intragastric, 7 days; cited from earlier work
# [7] = tested on: rat neutrophils; settings: read-out: IC50, βGLU release; cited from earlier work
compound,measurement,setting,value
"O=C(O)[C@@H](O)[C@H]1OC(=O)[C@H](O)[C@H]1O [Compound 5, D-saccharic acid-1,4-lactone]",inhibition of βGLU in breast milk,[1],over 90%
same,IC50,[2],~40 µM
same,severity of CPT-11 induced small-intestine mucosal damage,[3],reduced the severity
same,reduction of DMBA-induced oxidative DNA damage and mutations in codon 61 of Ha-ras gene,[4],up to 78%
same,inhibition of hydrolytic action on quercetin glucuronides,[5],completely inhibited
"Cc1ccc(C(C)C)c(O)c1 [Compound 54, thymol]","activities of lysosomal enzymes (βGLU, β-galactosidase, cathepsin B and D) in serum and heart",[6],potently inhibited to near-normal
C[C@@H]1C(=O)O[C@H]2[C@H](O)[C@@]34[C@H]5C[C@@H](C(C)(C)C)[C@]36[C@@H](OC(=O)[C@@H]6O)O[C@@]4(C(=O)O5)[C@@]12O [ginkgolide B],IC50,[7],6.63 µM
